# Assay results published in US7049289B1, “Labelled glutamine and lysine analogues” (Amersham PLC, priority 1998, dated 2006).
# Read-outs that look alike come from different tables or passages of the source. Where a SMILES comes first, the peptide text is derived from it. The star is where a group is joined. X1 = CC(=NO)C(C)(C)NCC(C)(CNC(C)(C)C(C)=NO)CN*; Cbz = O=C(OCc1ccccc1)*
# What was measured:
# [1] = rat, plasma, 2 h
# Protocol: (§1) To a portion of compound (50 μl, 10 MBq/ml) was added an equal volume of plasma (rat or human) or saline. The mixtures were incubated at 37° C. and the stability measured by HPLC (system C) at 0, 30 and 120 minutes. The saline dilution acted as a control.
# [2] = Imaging of clots induced in a rat model (jugular vein); format: in vivo, rat (male Wistar); conditions: planar gamma camera images 15–180 min p.i.
# Protocol: Clots were induced in male Wistar rats (250–350 g) as described in Example 17, with the exception that for these experiments the platinum wire was located in the jugular vein. The compounds were injected 60 min […] and planar images acquired between 15–180 min p.i. A Park medical Isocam I gamma camera was used for these experiments, 300K or 150K counts were of the thorax were collected using a LEUHR or a LEPH collimator. Clots were visualised from 15 min p.i.
# [3] = Incorporation into clots induced in a rat model (rat inferior vena cava model); format: in vivo, rat (Male Wistar); conditions: for % id/g (clot) / Rel. Conc. (cpm/g of clot by dose/g animal): sacrificed after 60 min
# Outline: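 Male Wistar rats (250–350 g) under 15% urethane anaesthesia, with the vena cava isolated by laparotomy. Compounds given 5 min (fresh clot) or 60 min (aged clot) after clot induction; clot, blood, lung and heart removed 60 min later, weighed and counted. Uptake expressed as cpm/g clot per dose/g animal and as clot-to-background tissue ratio.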
# [4] = target: T1, fibrin (in vitro human plasma clot) (Homo sapiens, UniProt P02671+P02675+P02679); test: Incorporation into human plasma clots in vitro; format: biochemical; conditions: for % specific uptake: % retained (with thrombin) - % retained (no thrombin); for % retained (no thrombin): control without thrombin and calcium chloride (non-specific binding); for % retained (with thrombin): human plasma clot, 60 minutes, ca. 20° C.
# T1 construct: about 400 μl of human plasma containing the radiolabelled substrate; from tissue; host or cells: human plasma, clotted in vitro with added thrombin and calcium chloride
# T1 sequence (P02671 20-644 isoform P02671-2 limits assumed): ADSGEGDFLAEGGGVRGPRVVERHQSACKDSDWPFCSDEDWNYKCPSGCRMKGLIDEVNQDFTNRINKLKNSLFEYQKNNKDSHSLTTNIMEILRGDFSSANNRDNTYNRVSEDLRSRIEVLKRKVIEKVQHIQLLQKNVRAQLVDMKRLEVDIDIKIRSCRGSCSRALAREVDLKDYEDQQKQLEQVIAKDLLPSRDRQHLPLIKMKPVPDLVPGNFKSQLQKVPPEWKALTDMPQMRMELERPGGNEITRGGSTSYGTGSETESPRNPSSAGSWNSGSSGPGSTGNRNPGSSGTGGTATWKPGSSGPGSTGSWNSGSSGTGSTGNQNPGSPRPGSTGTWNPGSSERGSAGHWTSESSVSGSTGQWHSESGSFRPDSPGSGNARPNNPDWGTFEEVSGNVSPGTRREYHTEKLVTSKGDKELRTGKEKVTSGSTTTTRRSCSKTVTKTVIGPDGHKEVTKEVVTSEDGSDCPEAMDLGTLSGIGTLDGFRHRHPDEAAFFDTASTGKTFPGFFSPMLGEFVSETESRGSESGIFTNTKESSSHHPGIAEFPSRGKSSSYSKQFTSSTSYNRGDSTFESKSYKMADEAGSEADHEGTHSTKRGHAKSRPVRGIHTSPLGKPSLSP
# T1 sequence (P02675 45-491 limits assumed): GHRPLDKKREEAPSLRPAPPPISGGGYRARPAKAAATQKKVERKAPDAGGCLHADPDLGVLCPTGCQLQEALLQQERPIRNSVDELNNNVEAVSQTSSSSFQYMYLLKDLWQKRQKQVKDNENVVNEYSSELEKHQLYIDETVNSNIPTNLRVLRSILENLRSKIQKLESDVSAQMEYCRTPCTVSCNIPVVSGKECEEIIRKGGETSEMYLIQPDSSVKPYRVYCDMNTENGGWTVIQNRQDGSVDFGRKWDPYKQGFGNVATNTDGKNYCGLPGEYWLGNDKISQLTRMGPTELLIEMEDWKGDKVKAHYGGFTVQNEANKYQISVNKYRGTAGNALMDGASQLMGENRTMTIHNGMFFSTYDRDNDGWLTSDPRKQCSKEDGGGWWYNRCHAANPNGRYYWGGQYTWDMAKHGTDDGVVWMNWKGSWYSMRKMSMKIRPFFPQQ
# T1 sequence (P02679 27-437 isoform P02679-2 limits assumed): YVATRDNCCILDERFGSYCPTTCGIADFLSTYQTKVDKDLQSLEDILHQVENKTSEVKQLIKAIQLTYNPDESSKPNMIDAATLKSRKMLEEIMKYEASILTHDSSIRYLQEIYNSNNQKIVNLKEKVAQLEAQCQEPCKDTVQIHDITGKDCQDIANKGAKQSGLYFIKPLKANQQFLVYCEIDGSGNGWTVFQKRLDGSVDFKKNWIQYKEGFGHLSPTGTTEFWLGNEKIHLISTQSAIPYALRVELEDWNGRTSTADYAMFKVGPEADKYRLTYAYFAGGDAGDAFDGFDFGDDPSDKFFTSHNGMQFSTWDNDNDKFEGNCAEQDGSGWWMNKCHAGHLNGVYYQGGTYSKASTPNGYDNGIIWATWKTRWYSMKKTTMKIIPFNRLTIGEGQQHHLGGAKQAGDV
# Outline: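 Human plasma containing radiolabelled substrate (typically 10 kBq/ml) clotted with thrombin in Tris-saline pH 7.5 with 4 mM CaCl2, 60 min at ca. 20 °C, then stopped with cold EDTA. Clots collected on nitrocellulose filters and washed; incorporation is filter-retained radioactivity fraction minus non-specific binding from thrombin/calcium-free controls.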
# [5] = human, plasma, 2 h
# Protocol: as §1
# [6] = set-up: species or system rat (Male Wistar); conditions: rat, in vivo; for % ID Blood / % ID GI Tract / % ID Heart / % ID Kidney / % ID Liver / % ID Lung / % ID Muscle / % ID Urine: iv
# Protocol: The resolution of a clot image is dependant on the combination of rate of incorporation of the radiopharmaceutical and its blood/tissues clearance rate. For this reason the biodistribution of several compounds has been determined in rats. Male Wistar (100–150 g) rats were injected i.v. with 0.1–0.2 ml of radiolabelled tracer solution (8 MBq/ml) and dissected at different times post-injection. The % ID in each of the selected tissues was measured. Some animals were kept in metabolism cages to be able to determine the % ID excreted in urine and faeces. The dissection times used for the agent were 15, 30, 60, 240 min. Data are shown as mean of % ID (n=3).
# [7] = In vitro plasma stability (human plasma)
# Protocol: as §1
# [8] = In vitro plasma stability (rat plasma)
# Protocol: as §1
# [9] = ^125I radiolabelled; cited from earlier work
# [10] = Aged Clots: injected 60 min post-induction
# [11] = Fresh Clots: injected 5 min post-induction
molecule,measurement,setting,value
Ac-NQEQVSPYTLLKG-Pn216 (also: 99mTc complex) [^99mTc-Cmpd 5],% intact at 120 mins,[1],>90%
same,suitability for imaging clots (in words),[2],suitable for imaging clots
same,Clot/blood,[3]; Aged Clots,13
same,Clot/heart,[3]; Aged Clots,33
same,Clot/liver,[3]; Aged Clots,24
same,Clot/lung,[3]; Aged Clots,31
same,% id/g (clot),[3]; [10],3.6 ± 1.7 % id/g
same,Rel. Conc. (cpm/g of clot by dose/g animal),[3]; [10],11 ± 5.1
same,Clot/blood,[3]; Fresh Clots,21
same,Clot/heart,[3]; Fresh Clots,51
same,Clot/liver,[3]; Fresh Clots,43
same,Clot/lung,[3]; Fresh Clots,23
same,% id/g (clot),[3]; [11],6.0 ± 2.1 % id/g
same,Rel. Conc. (cpm/g of clot by dose/g animal),[3]; [11],16 ± 5.8
same,% specific uptake,[4],35.3%
same,% retained (no thrombin),[4],0.2%
same,% retained (with thrombin),[4],35.5%
same,% intact at 120 mins,[5],>90%
Ac-NQEQVSPYTLLKG-Pn44 (also: 99mTc complex) [^99mTc-Cmpd 3],% intact at 120 mins,[1],>90%
same,Clot/blood,[3]; Aged Clots,8
same,Clot/heart,[3]; Aged Clots,23
same,Clot/liver,[3]; Aged Clots,5
same,Clot/lung,[3]; Aged Clots,11
same,% id/g (clot),[3]; [10],2.1 ± 0.8 % id/g
same,Rel. Conc. (cpm/g of clot by dose/g animal),[3]; [10],6.2 ± 2.2
same,Clot/blood,[3]; Fresh Clots,10
same,Clot/heart,[3]; Fresh Clots,17
same,Clot/liver,[3]; Fresh Clots,6
same,Clot/lung,[3]; Fresh Clots,8
same,% id/g (clot),[3]; [11],1.4 ± 0.4 % id/g
same,Rel. Conc. (cpm/g of clot by dose/g animal),[3]; [11],5.1 ± 1.2
same,"t1/2 (blood clearance, biological half life)",[6],2 h
same,% ID Blood,[6]; 0.25 h,5.3 % ID
same,% ID GI Tract,[6]; 0.25 h,13.5 % ID
same,% ID Heart,[6]; 0.25 h,0.2 % ID
same,% ID Kidney,[6]; 0.25 h,7.6 % ID
same,% ID Liver,[6]; 0.25 h,6.2 % ID
same,% ID Lung,[6]; 0.25 h,0.7 % ID
same,% ID Muscle,[6]; 0.25 h,14.7 % ID
same,% ID Urine,[6]; 0.25 h,14.9 % ID
same,% ID Blood,[6]; 0.5 h,1.8 % ID
same,% ID GI Tract,[6]; 0.5 h,15.1 % ID
same,% ID Heart,[6]; 0.5 h,0.1 % ID
same,% ID Kidney,[6]; 0.5 h,4.9 % ID
same,% ID Liver,[6]; 0.5 h,4.1 % ID
same,% ID Lung,[6]; 0.5 h,0.4 % ID
same,% ID Muscle,[6]; 0.5 h,10.4 % ID
same,% ID Urine,[6]; 0.5 h,34.3 % ID
same,% ID Blood,[6]; 1 h,1.6 % ID
same,% ID GI Tract,[6]; 1 h,18.0 % ID
same,% ID Heart,[6]; 1 h,0.1 % ID
same,% ID Kidney,[6]; 1 h,4.6 % ID
same,% ID Liver,[6]; 1 h,4.0 % ID
same,% ID Lung,[6]; 1 h,0.3 % ID
same,% ID Muscle,[6]; 1 h,5.1 % ID
same,% ID Urine,[6]; 1 h,37.0 % ID
same,% ID Blood,[6]; 4 h,0.6 % ID
same,% ID GI Tract,[6]; 4 h,20.7 % ID
same,% ID Heart,[6]; 4 h,0.04 % ID
same,% ID Kidney,[6]; 4 h,3.4 % ID
same,% ID Liver,[6]; 4 h,3.0 % ID
same,% ID Lung,[6]; 4 h,0.3 % ID
same,% ID Muscle,[6]; 4 h,2.9 % ID
same,% ID Urine,[6]; 4 h,42.0 % ID
same,% specific uptake,[4],39.0%
same,% retained (no thrombin),[4],0.3%
same,% retained (with thrombin),[4],39.3%
same,% intact at 120 mins,[5],>90%
"CC(=NO)C(C)(C)NCC(C)(CNC(=O)CNC(=O)[C@H](CCCCN)NC(=O)[C@H](CC(C)C)NC(=O)[C@H](CC(C)C)NC(=O)[C@@H](NC(=O)[C@H](Cc1ccc(O)cc1)NC(=O)[C@@H]1CCCN1C(=O)[C@H](CO)NC(=O)[C@@H](NC(=O)[C@H](CCC(N)=O)NC(=O)[C@H](CCC(=O)O)NC(=O)[C@H](CCC(N)=O)NC(=O)[C@H](CC(N)=O)NC(=O)OCc1ccccc1)C(C)C)[C@@H](C)O)CNC(C)(C)C(C)=NO (stereo partly shown) [^99mTc-Cmpd 7, metal not drawn] (Cbz-NQEQVSPYTLLKG-X1; C-terminus assumed)",Clot/blood,[3]; Aged Clots,9
same,Clot/heart,[3]; Aged Clots,15
same,Clot/liver,[3]; Aged Clots,3
same,Clot/lung,[3]; Aged Clots,7
same,% id/g (clot),[3]; [10],2.1 ± 0.3 % id/g
same,Rel. Conc. (cpm/g of clot by dose/g animal),[3]; [10],6.5 ± 1.3
same,Clot/blood,[3]; Fresh Clots,15
same,Clot/heart,[3]; Fresh Clots,21
same,Clot/liver,[3]; Fresh Clots,6
same,Clot/lung,[3]; Fresh Clots,11
same,% id/g (clot),[3]; [11],4.8 ± 1.3 % id/g
same,Rel. Conc. (cpm/g of clot by dose/g animal),[3]; [11],14.5 ± 4.4
same,remaining at 2 h,[7],> 90%
same,remaining at 2 h,[8],> 90%
same,% specific uptake,[4],40.6%
same,% retained (no thrombin),[4],0.7%
same,% retained (with thrombin),[4],41.3%
"NQEQVSPYTLTLLK [synthetic analogue of the alpha-2 antiplasmin N-terminal peptide, WO 89/00051]",uptake in thrombin clots in vitro (in words),[9],taken up in thrombin clots in vitro
Ac-NQEAVSPYTLLKG-Pn44 (also: 99mTc complex) [^99mTc-Cmpd 12],% intact at 120 mins,[1],>90%
same,Clot/blood,[3]; Aged Clots,19
same,Clot/heart,[3]; Aged Clots,75
same,Clot/liver,[3]; Aged Clots,7
same,Clot/lung,[3]; Aged Clots,15
same,% id/g (clot),[3]; [10],4.1 ± 1.2 % id/g
same,Rel. Conc. (cpm/g of clot by dose/g animal),[3]; [10],11.2 ± 3.4
same,Clot/blood,[3]; Fresh Clots,20
same,Clot/heart,[3]; Fresh Clots,31
same,Clot/liver,[3]; Fresh Clots,8
same,Clot/lung,[3]; Fresh Clots,17
same,% id/g (clot),[3]; [11],7.3 ± 4.1 % id/g
same,Rel. Conc. (cpm/g of clot by dose/g animal),[3]; [11],19.8 ± 11.0
same,% specific uptake,[4],34.5%
same,% retained (no thrombin),[4],0.3%
same,% retained (with thrombin),[4],34.8%
same,% intact at 120 mins,[5],>90%
